Laboratory results: the METLIN SMRT retention time set (Domingo-Almenara et al. 2019)

Assay: gradient 5% acetonitrile 3 min, to 50% in 2 min, to 85% in 15 min, held 3 min, 100 µL/min
Settings: column: Zorbax Extend-C18 2.1 x 50 mm; eluents: water / acetonitrile, 0.1% formic acid
In short: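 Pure standards were analyzed in mixtures of ~100 molecules using HPLC coupled to a quadrupole time-of-flight mass spectrometer, in both positive and negative ionization mode. Separation used a Zorbax Extend-C18 column (2.1 × 50 mm, 1.8 μm) at 100 μL/min, with water and acetonitrile each containing 0.1% formic acid. Dead and dwell volumes were 40 μL and 900 μL, and data were collected over 3 months. Retention time was read from computationally picked adduct peaks, each inspected manually.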

| Structure (SMILES) | RP-LC retention time |
| --- | --- |
| COc1ccc(Cn2cccc2-c2nc(-c3ccncc3)no2)cc1 | 1080 s |
| COc1ccc(N2CCN(c3cc(SCC(=O)Nc4ccc(C)c(F)c4)ncn3)CC2)cc1 | 1030 s |
| NC(=O)C(=O)c1cn(Cc2ccccc2)c2ccccc12 | 872 s |
| CSc1ncn(-c2nc(NC(C)C)nc(NC(C)C)n2)n1 | 875 s |
| COc1ccc(-c2nc3ncccn3c2Nc2ccc(C)c(C)c2)cc1 | 784 s |
| O=S(=O)(Cc1noc(-c2ccc(F)cc2F)n1)c1ccc(Cl)cc1 | 1160 s |
| COc1ccc(N2CCN(c3ncc(S(=O)(=O)c4ccc(C(C)C)cc4)c(N)n3)CC2)cc1 | 1070 s |
| COc1ccc(-c2ccc3nc(N4CCC(C(=O)NC5CC5)CC4)sc3n2)cc1 | 746 s |
| CCSc1nc2ccc(NS(=O)(=O)c3ccc(F)c(F)c3)cc2s1 | 1070 s |
| COc1ccccc1CNC(=O)C1CCN(S(=O)(=O)c2ccc3[nH]c(=O)ccc3c2)CC1 | 714 s |
| CCOC(=O)C1CCc2sc(NC(=O)c3cc(-c4cccs4)[nH]n3)nc21 (stereo not drawn) | 835 s |
| CCOc1ccc(NC(=O)Cn2c(C)nc3cc4c(cc32)OCCO4)cc1 | 658 s |
| Cc1ccc(C)c(S(=O)(=O)N2CC=C(c3cn(C)c4ncccc34)CC2)c1 | 1070 s |
| CN1C2CCCC1CC(NC(=O)c1nn(C)c3ccccc13)C2 (stereo not drawn) | 640 s |
| CCOC(=O)N1CCN(C(=O)c2cn(CC(O)c3ccccc3)nn2)CC1 (stereo not drawn) | 634 s |
| Cc1ccc(-n2ccnc2SCc2nc(-c3cccc(F)c3)no2)cc1 | 971 s |

More lines, now with the values ahead:

| RP-LC retention time | Structure (SMILES) |
| --- | --- |
| 743 s | CCCN(CC1CCOC1)C(=O)c1ccc(F)cc1F (stereo not drawn) |
| 1030 s | CCn1nc(C)c2c(-c3ccccc3)cc(OC(C)C(=O)Nc3ccc(C(C)=O)cc3)nc21 (stereo not drawn) |
| 1180 s | CCn1cc(C2=CCN(S(=O)(=O)c3ccc(C)c(Cl)c3)CC2)c2cccnc21 |
| 1270 s | O=C(Nc1cc(F)ccc1F)C1CCCN(c2nc3ccccc3nc2C(F)(F)F)C1 (stereo not drawn) |
| 1060 s | Cc1c(Cl)cccc1S(=O)(=O)N1CCc2c(c(-c3nnc(-c4ccccc4)o3)nn2C)C1 |
| 857 s | CCc1cccc(C)c1NC(=O)Cn1c(N(C)Cc2ccccc2)nc(C)cc1=O |
| 727 s | Cc1ccn2c(Nc3ccc4c(c3)OCCO4)c(-c3cccc(Cl)c3)nc2c1 |
| 736 s | Cc1ccc(NCCN(C)C)c2c(=O)c3cc(O)ccc3sc12 |
| 767 s | O=C(Nc1nc2c(F)cc(F)cc2s1)C1CCCN(S(=O)(=O)c2cccs2)C1 (stereo not drawn) |
| 834 s | Cc1nnc(-c2ccc(S(=O)(=O)N3CCCCCC3)o2)o1 |
| 645 s | O=C(c1ccc(CS(=O)(=O)c2cccc(C(F)(F)F)c2)o1)N1CCN(c2ccccn2)CC1 |
| 630 s | CCN(CC)c1ccc(NC(=O)CN2C(=O)C(C)(C)c3ccccc32)c(C)c1 |
